In article PMC5916772 (ACS combinatorial science, 2017):

Columns and labels:
[1] = tested on: polyclonal anti-1′Nic antiserum; assay: Competition ELISA of polyclonal anti-1′Nic antiserum on 1′Nic-BSA coated plates; format: binding, mice; conditions: pooled polyclonal anti-1′Nic antiserum; free HPs as competitors
[2] = tested on: monoclonal anti-1′Nic antibody, mAb-5F3; format: binding, mice

SMILES	HP-IC50/Nic-IC50 ratio, binding activity to antiserum [1]	HP-IC50/Nic-IC50 ([2]; IC50 ratio of HP-IC50 to IC50 of free nicotine on the same ELISA plate)	IC50 ([2]; read-out: HP-IC50, free HPs as competitors, 1′Nic-BSA coated plates)
O=C(CCCN1CCC[C@H]1c1cccnc1)NC1CCC(C(=O)O)CC1 (stereo partly drawn) [HP 2, 4-(4-((S)-2-(Pyridin-3-yl)pyrrolidin-1-yl)butanamido)-cyclohexanecarboxylic Acid]	close to or larger than 1.0	–	–
CN1CCC[C@H]1c1cccnc1 [free Nic, nicotine]	–	1.0	1410 ± 250 nM
